Values after ≈ are worked out from the molar mass of the structure shown. Active and inactive are the calls of the source. The rule behind the calls is not given here.
Legend:
Format in all cases: functional, cell-based
THP-1 [1] = assay: Cytotoxicity against human THP1 cells assessed as reduction in cell viability at 100 ug/ml after 24 hrs by MTT assay
HL-60 [2] = assay: Cytotoxicity against human HL60 cells assessed as reduction in cell viability at 100 ug/ml after 24 hrs by MTT assay
B16-F10 [3] = assay: Cytotoxicity against mouse B16F10 cells assessed as reduction in cell viability at 100 ug/ml after 24 hrs by MTT assay
U-937 = assay: Cytotoxicity against human U937 cells assessed as reduction in cell viability at 100 ug/ml after 24 hrs by MTT assay
THP-1 [4] = assay: Cytotoxicity against human THP1 cells assessed as reduction in cell viability after 24 hrs by MTT assay; settings: THP-1, 24 h
HL-60 [5] = assay: Cytotoxicity against human HL60 cells assessed as reduction in cell viability after 24 hrs by MTT assay; settings: HL-60, 24 h
[6] = Cytotoxicity against human U937 cells assessed as reduction in cell viability after 24 hrs by MTT assay; settings: U-937, 24 h
B16-F10 [7] = assay: Cytotoxicity against mouse B16F10 cells assessed as reduction in cell viability after 24 hrs by MTT assay; settings: B16-F10, 24 h

## Nc1nn(Cc2cn(-c3cccc(Cl)c3)nn2)c2nc(-c3ccccc3)cc(C(F)(F)F)c12
THP-1 [1]
  Activity: inactive
HL-60 [2]
  Activity: inactive
B16-F10 [3]
  Activity: inactive

## Nc1nn(Cc2cn(CC(=O)Nc3ccccc3)nn2)c2nc(-c3ccccc3)cc(C(F)(F)F)c12
U-937
  Activity: inactive
THP-1 [4]
  IC50: 54.6 µg/mL (≈ 111 µM)
HL-60 [5]
  IC50: 96.3 µg/mL (≈ 196 µM)
B16-F10 [3]
  Activity: inactive

## Nc1nn(Cc2cn(CC(=O)Nc3ccc(F)cc3Br)nn2)c2nc(-c3ccccc3)cc(C(F)(F)F)c12
THP-1 [4]
  IC50: 65.6 µg/mL (≈ 111 µM)
[6]
  IC50: 98.3 µg/mL (≈ 167 µM)
B16-F10 [7]
  IC50: 98 µg/mL (≈ 166 µM)
HL-60 [5]
  IC50: 63.6 µg/mL (≈ 108 µM)

## Cc1ccc(-n2cc(Cn3nc(N)c4c(C(F)(F)F)cc(-c5ccccc5)nc43)nn2)cc1
U-937
  Activity: inactive
HL-60 [2]
  Activity: inactive
THP-1 [4]
  IC50: 98.6 µg/mL (≈ 219 µM)
B16-F10 [3]
  Activity: inactive

## Cc1c(Br)cccc1-n1cc(Cn2nc(N)c3c(C(F)(F)F)cc(-c4ccccc4)nc32)nn1
THP-1 [1]
  Activity: inactive
HL-60 [2]
  Activity: inactive
[6]
  IC50: 97.2 µg/mL (≈ 184 µM)
B16-F10 [3]
  Activity: inactive

## Nc1nn(Cc2cn(-c3ccc(O)c([N+](=O)[O-])c3)nn2)c2nc(-c3ccccc3)cc(C(F)(F)F)c12
THP-1 [4]
  IC50: 36.2 µg/mL (≈ 73 µM)
[6]
  IC50: 41.3 µg/mL (≈ 83.1 µM)
B16-F10 [7]
  IC50: 42.3 µg/mL (≈ 85.1 µM)

## Nc1nn(Cc2cn(-c3ccc(Br)c(F)c3)nn2)c2nc(-c3ccccc3)cc(C(F)(F)F)c12
U-937
  Activity: inactive
THP-1 [1]
  Activity: inactive
HL-60 [2]
  Activity: inactive
B16-F10 [3]
  Activity: inactive

## Cc1ccc(NC(=O)Cn2cc(Cn3nc(N)c4c(C(F)(F)F)cc(-c5ccccc5)nc43)nn2)cc1
HL-60 [2]
  Activity: inactive
THP-1 [4]
  IC50: 41.5 µg/mL (≈ 81.9 µM)
[6]
  IC50: 65.3 µg/mL (≈ 129 µM)
B16-F10 [3]
  Activity: inactive

## Nc1nn(Cc2cn(-c3ccc(F)cc3)nn2)c2nc(-c3ccccc3)cc(C(F)(F)F)c12
U-937
  Activity: inactive
THP-1 [1]
  Activity: inactive
HL-60 [2]
  Activity: inactive
B16-F10 [3]
  Activity: inactive

## Nc1nn(Cc2cn(CCC(F)(F)C(F)(F)C(F)(F)C(F)(F)C(F)(F)C(F)(F)C(F)(F)C(F)(F)F)nn2)c2nc(-c3ccccc3)cc(C(F)(F)F)c12
U-937
  Activity: inactive
THP-1 [1]
  Activity: inactive
HL-60 [2]
  Activity: inactive
B16-F10 [3]
  Activity: inactive

## COc1ccc(NC(=O)Cn2cc(Cn3nc(N)c4c(C(F)(F)F)cc(-c5ccccc5)nc43)nn2)cc1
U-937
  Activity: inactive
HL-60 [2]
  Activity: inactive
THP-1 [4]
  IC50: 56.7 µg/mL (≈ 109 µM)
B16-F10 [3]
  Activity: inactive

## Nc1nn(Cc2cn(-c3ccc([N+](=O)[O-])cc3)nn2)c2nc(-c3ccccc3)cc(C(F)(F)F)c12
THP-1 [1]
  Activity: inactive
HL-60 [2]
  Activity: inactive
[6]
  IC50: 98.8 µg/mL (≈ 206 µM)
B16-F10 [3]
  Activity: inactive

## Nc1nn(Cc2cn(CC(=O)Nc3c(F)cccc3F)nn2)c2nc(-c3ccccc3)cc(C(F)(F)F)c12
THP-1 [4]
  IC50: 43.3 µg/mL (≈ 81.9 µM)
[6]
  IC50: 30.6 µg/mL (≈ 58 µM)
B16-F10 [7]
  IC50: 41.6 µg/mL (≈ 78.7 µM)
HL-60 [5]
  IC50: 32.8 µg/mL (≈ 62 µM)

## Nc1nn(Cc2cn(-c3ccc(F)c(Cl)c3)nn2)c2nc(-c3ccccc3)cc(C(F)(F)F)c12
THP-1 [1]
  Activity: inactive
[6]
  IC50: 99.1 µg/mL (≈ 203 µM)
HL-60 [5]
  IC50: 35 µg/mL (≈ 71.8 µM)
B16-F10 [3]
  Activity: inactive

## CCCCCCn1cc(Cn2nc(N)c3c(C(F)(F)F)cc(-c4ccccc4)nc32)nn1
U-937
  Activity: inactive
THP-1 [1]
  Activity: inactive
HL-60 [2]
  Activity: inactive
B16-F10 [3]
  Activity: inactive

## Nc1nn(Cc2cn(CC(=O)Nc3cccc(F)c3)nn2)c2nc(-c3ccccc3)cc(C(F)(F)F)c12
THP-1 [4]
  IC50: 99.5 µg/mL (≈ 195 µM)
[6]
  IC50: 43.5 µg/mL (≈ 85.3 µM)
HL-60 [5]
  IC50: 63.9 µg/mL (≈ 125 µM)
B16-F10 [3]
  Activity: inactive

## CCCCCCCCCCn1cc(Cn2nc(N)c3c(C(F)(F)F)cc(-c4ccccc4)nc32)nn1
THP-1 [4]
  IC50: 48.7 µg/mL (≈ 97.4 µM)
[6]
  IC50: 27.1 µg/mL (≈ 54.3 µM)
B16-F10 [7]
  IC50: 84.9 µg/mL (≈ 170 µM)
HL-60 [5]
  IC50: 29.9 µg/mL (≈ 59.8 µM)

## Nc1nn(Cc2cn(CC(=O)Nc3cccc(Cl)c3)nn2)c2nc(-c3ccccc3)cc(C(F)(F)F)c12
U-937
  Activity: inactive
HL-60 [2]
  Activity: inactive
THP-1 [4]
  IC50: 37 µg/mL (≈ 70.3 µM)
B16-F10 [3]
  Activity: inactive

## Nc1nn(Cc2cn(CCC(F)(F)C(F)(F)C(F)(F)C(F)(F)C(F)(F)C(F)(F)F)nn2)c2nc(-c3ccccc3)cc(C(F)(F)F)c12
THP-1 [1]
  Activity: inactive
[6]
  IC50: 98.2 µg/mL (≈ 139 µM)
HL-60 [5]
  IC50: 97.6 µg/mL (≈ 138 µM)
B16-F10 [3]
  Activity: inactive

## Nc1nn(Cc2cn(CC(=O)NC3CCCCC3)nn2)c2nc(-c3ccccc3)cc(C(F)(F)F)c12
THP-1 [4]
  IC50: 64.8 µg/mL (≈ 130 µM)
[6]
  IC50: 89 µg/mL (≈ 179 µM)
B16-F10 [7]
  IC50: 99.1 µg/mL (≈ 199 µM)
HL-60 [5]
  IC50: 42.9 µg/mL (≈ 86.2 µM)

## Nc1nn(Cc2cn(CC(=O)Nc3ccccc3Br)nn2)c2nc(-c3ccccc3)cc(C(F)(F)F)c12
U-937
  Activity: inactive
THP-1 [4]
  IC50: 95.3 µg/mL (≈ 167 µM)
HL-60 [5]
  IC50: 27.2 µg/mL (≈ 47.6 µM)
B16-F10 [3]
  Activity: inactive

## COc1ccc(-n2cc(Cn3nc(N)c4c(C(F)(F)F)cc(-c5ccccc5)nc43)nn2)cc1
U-937
  Activity: inactive
THP-1 [1]
  Activity: inactive
HL-60 [2]
  Activity: inactive
B16-F10 [3]
  Activity: inactive

## Nc1nn(Cc2cn(-c3ccccc3)nn2)c2nc(-c3ccccc3)cc(C(F)(F)F)c12
U-937
  Activity: inactive
THP-1 [1]
  Activity: inactive
HL-60 [2]
  Activity: inactive
B16-F10 [3]
  Activity: inactive

## CCCCn1cc(Cn2nc(N)c3c(C(F)(F)F)cc(-c4ccccc4)nc32)nn1
U-937
  Activity: inactive
THP-1 [4]
  IC50: 46.1 µg/mL (≈ 111 µM)
HL-60 [5]
  IC50: 36.7 µg/mL (≈ 88.4 µM)
B16-F10 [3]
  Activity: inactive

## Nc1nn(Cc2cn(CC(=O)Nc3ccc(F)cc3)nn2)c2nc(-c3ccccc3)cc(C(F)(F)F)c12
U-937
  Activity: inactive
THP-1 [4]
  IC50: 49.5 µg/mL (≈ 97.1 µM)
HL-60 [5]
  IC50: 44.8 µg/mL (≈ 87.7 µM)
B16-F10 [3]
  Activity: inactive

## COc1cc([C@@H]2c3cc4c(cc3[C@@H](O[C@@H]3O[C@@H]5CO[C@@H](C)O[C@H]5[C@H](O)[C@H]3O)[C@H]3COC(=O)[C@H]23)OCO4)cc(OC)c1O [ETOPOSIDE]
THP-1 [4]
  IC50: 6.34 µg/mL (≈ 10.8 µM)
[6]
  IC50: 6.7 µg/mL (≈ 11.4 µM)
B16-F10 [7]
  IC50: 3.8 µg/mL (≈ 6.46 µM)
HL-60 [5]
  IC50: 2.13 µg/mL (≈ 3.62 µM)

## Nc1nn(Cc2cn(-c3cccc(C(F)(F)F)c3)nn2)c2nc(-c3ccccc3)cc(C(F)(F)F)c12
U-937
  Activity: inactive
THP-1 [1]
  Activity: inactive
HL-60 [2]
  Activity: inactive
B16-F10 [3]
  Activity: inactive

## CCCCCCCCn1cc(Cn2nc(N)c3c(C(F)(F)F)cc(-c4ccccc4)nc32)nn1
U-937
  Activity: inactive
THP-1 [1]
  Activity: inactive
HL-60 [2]
  Activity: inactive
B16-F10 [3]
  Activity: inactive
